A short description of data set [1]: Acute toxicity experiment (single oral gavage). As to conditions: mouse, in vivo.
A further data set addresses NA Transporter (hNAT) (Homo sapiens, UniProt P23975). Kind of data set: Inhibition of [3H]-NA reuptake in HEK 293 cells stably expressing hNAT. The note with it: for inhibition at 10 µM: HEK293, read-out: NA Reuptake Inhibition.
The subject of data set [2] is Histidine auxotroph mutant of mouse salmonella TA97, TA98, TA100 and TA102. The class given is cell-based. The note with it: for bacteriostatic action: 5000 μg per dish, TA98 without S9 and TA97 with S9, none at other dosages; for Ames test result: TA97, TA98, TA100, TA102, with or without S9, all test dosages. The text has this:
5. […] 6. Bacterial Reverse Mutation Test of Compounds VI-1 VI-2 and VI16 • Strains: Histidine auxotroph mutant of mouse salmonella TA97, TA98, TA100 and TA102. • Test method: The one reported in Maron DM et al: (1983) Mutay Res. 113, 173-216 is used. • Results: The test consists of two parts, i.e., −S9 and +S9. […] No bacteriostatic actions to all the strains are observed at all the other dosages, and the growth background is good.
(In general: The Ames test uses bacterial strains that need an amino acid and regain growth without it when mutated back.)

Another data set concerns the target DA Transporter (hDAT) (Homo sapiens, UniProt Q01959). Description: Inhibition of [3H]-DA reuptake in HEK 293 cells stably expressing hDAT. As to conditions: for inhibition at 10 µM: HEK293, read-out: DA Reuptake Inhibition.
The subject of the next data set is male ICR mice. Kind of data set: Mice tail suspension test. As to conditions: for IT (sec), immobility time: 20.0 mg/kg single intragastric administration, 1 h before test, 4 min observation, n=12; for Improvement (%): 20.0 mg/kg single oral administration, versus blank control IT; for effect on immobility time in the tail suspension test (in words): efficacy similar to Venlafaxine. The class given is in vivo. The protocol: Through intragastric administration, 10 mL·kg^−1 of each sample (physiological saline for the blank control group) is administrated. After 1 h of the treatment, the mouse is held with a medical tape at a position around 2 cm from the tip of its tail and hung upside-down in the suspension cage with its head 5 cm away from the bottom of the cage. The observation starts right after the mouse is suspended for 2 min and continues for 4 min. The time during which the mouse is immobile (no struggling or only tiny movements of its body/limbs) in this 4 min is accumulated (IT, immobility time). The percentage of the improvement is calculated according to the equation: Improvement %=[IT (blank control group)−IT (compound treatment group)]/IT (blank control group)×100%

The target in a further data set is 5-HT Transporter (hSERT) (Homo sapiens, UniProt P31645). Kind of data set: Inhibition of [3H]-5-HT reuptake in HEK 293 cells stably expressing hSERT.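 On all read-outs here: compound preincubated 10 min at 30 °C, then 10 min uptake, filter-bound radioactivity counted by scintillation, inhibition relative to total (blank) minus non-specific (positive control) uptake.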 As to conditions: for inhibition at 10 µM: HEK293, read-out: 5-HT Reuptake Inhibition.
Chain of 5-HT Transporter (hSERT) (P31645 whole entry): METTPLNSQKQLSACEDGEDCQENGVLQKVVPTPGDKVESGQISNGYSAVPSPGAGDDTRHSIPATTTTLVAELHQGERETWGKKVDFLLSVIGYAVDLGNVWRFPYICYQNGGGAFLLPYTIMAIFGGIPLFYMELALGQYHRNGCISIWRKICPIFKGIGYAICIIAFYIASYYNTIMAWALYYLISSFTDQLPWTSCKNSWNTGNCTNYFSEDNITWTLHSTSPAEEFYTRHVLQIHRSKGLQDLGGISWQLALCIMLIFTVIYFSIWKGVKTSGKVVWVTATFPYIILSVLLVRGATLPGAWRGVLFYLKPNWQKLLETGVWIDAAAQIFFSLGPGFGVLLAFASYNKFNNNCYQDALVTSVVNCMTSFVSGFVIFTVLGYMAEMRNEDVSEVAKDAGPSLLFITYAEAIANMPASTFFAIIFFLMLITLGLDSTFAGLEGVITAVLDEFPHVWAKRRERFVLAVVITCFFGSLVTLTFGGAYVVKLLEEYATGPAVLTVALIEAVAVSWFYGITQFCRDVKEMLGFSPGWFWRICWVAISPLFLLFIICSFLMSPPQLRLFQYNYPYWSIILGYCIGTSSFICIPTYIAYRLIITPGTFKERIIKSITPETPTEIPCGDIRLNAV
The subject of the next data set is male Kunming mice. Kind of data set: Mice forced swimming test. The class given is in vivo. The note with it: for effect in the forced swimming test (in words): 20 mg/kg; for IT (sec), immobility time: 20.0 mg/kg single intragastric administration, 1 h before test, last 4 min of 6 min, n=12. The protocol:
Through intragastric administration, 10 mL·kg^−1 of each sample (physiological saline for the blank control group) is administrated. The mice are pre-screened for swimming one day before the actual test. The mouse is placed into water (25° C., 10 cm deep) in a glass tank (height 20 cm, diameter 14 cm) and forced to swim for 6 min. Those who stop swimming at around 70-160 s are chosen for the actual test which starts 24 h later. After 1 h of the administration, the forced swimming test is performed by placing the animal into the above-mentioned environment to swim for 6 min. The accumulative immobility time for the last 4 min is recorded. Data is statistically analyzed with t-test.

A further data set relates to rats. Kind of data set: Learned helplessness experiment (conditioned avoidance test). The class given is in vivo. The text has this:
(1) Principles • This is an animal model of depression. In this experiment, an animal is placed under conditions with aversive stimulus which it can't escape. […] This is a well recognized depression state, in which the level of catecholamine in the animal's brain is reduced. An antidepressant can act against this state. The learned helplessness model is sensitive to a variety of antidepressants used in a sub-long period (3-7 d), including tricyclic antidepressants, monoamine oxidase inhibitors, monoamine reuptake inhibitors and atypical antidepressants.
(2) Test Method • The animals are grouped. The pre-shock animals are generated the first day by performing inescapable electric shock. The pre-shock animals are given foot electric shock (0.8 mA, 15 s) for 60 times (1 min interval). Rats in the control group are only put into the cage for a same period of time but without any electric shock. • The administration of drugs starts the next day and lasts for one week. […] The conditioned avoidance test is conducted 24 h after the last administration to determine the number of times of successful avoidance and the incubation period of escape.

Setting [3] is: 30 mg/kg, one week, test 24 h after last administration, n = 10.
The mark [4] stands for this setting: Venlafaxine 30 mg/kg, VI-2 at 3 doses (20, 10, 5 mg/kg).

Where two headings read alike, the source gives them in different places.

Chain of DA Transporter (hDAT) (Q01959 whole entry): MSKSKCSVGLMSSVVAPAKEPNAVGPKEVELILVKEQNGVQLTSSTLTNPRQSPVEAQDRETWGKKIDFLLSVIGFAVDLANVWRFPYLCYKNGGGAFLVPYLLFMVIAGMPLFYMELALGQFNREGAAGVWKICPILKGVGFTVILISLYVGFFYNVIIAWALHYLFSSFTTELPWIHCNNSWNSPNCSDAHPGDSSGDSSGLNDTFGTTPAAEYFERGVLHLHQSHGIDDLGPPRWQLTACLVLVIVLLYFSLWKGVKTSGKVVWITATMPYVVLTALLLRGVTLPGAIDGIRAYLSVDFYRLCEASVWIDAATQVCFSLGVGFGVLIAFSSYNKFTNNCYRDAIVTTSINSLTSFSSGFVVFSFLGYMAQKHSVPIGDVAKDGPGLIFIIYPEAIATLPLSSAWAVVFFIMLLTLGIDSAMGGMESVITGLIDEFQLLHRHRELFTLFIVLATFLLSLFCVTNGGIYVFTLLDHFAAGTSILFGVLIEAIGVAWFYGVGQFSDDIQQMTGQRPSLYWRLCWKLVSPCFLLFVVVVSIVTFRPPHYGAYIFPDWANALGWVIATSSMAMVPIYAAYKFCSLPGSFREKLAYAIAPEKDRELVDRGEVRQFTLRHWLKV
Chain of NA Transporter (hNAT) (P23975 whole entry): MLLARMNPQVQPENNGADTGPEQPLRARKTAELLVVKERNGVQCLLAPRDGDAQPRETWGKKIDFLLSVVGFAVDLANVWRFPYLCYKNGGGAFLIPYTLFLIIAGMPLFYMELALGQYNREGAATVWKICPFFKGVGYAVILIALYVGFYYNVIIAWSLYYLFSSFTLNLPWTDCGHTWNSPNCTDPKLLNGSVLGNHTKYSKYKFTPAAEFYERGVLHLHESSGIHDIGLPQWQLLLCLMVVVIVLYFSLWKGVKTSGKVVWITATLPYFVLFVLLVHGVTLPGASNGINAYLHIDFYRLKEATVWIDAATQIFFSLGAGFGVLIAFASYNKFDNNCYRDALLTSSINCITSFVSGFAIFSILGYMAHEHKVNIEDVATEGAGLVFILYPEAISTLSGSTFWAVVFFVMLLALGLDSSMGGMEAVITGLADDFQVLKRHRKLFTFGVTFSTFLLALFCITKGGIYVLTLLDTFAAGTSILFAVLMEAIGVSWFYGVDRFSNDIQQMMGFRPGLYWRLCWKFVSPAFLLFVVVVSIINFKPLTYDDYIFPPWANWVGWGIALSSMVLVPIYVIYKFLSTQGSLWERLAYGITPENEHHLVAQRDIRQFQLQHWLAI

Consider `CN(C)CCC(c1csc2ccccc12)N1CCCCC1` (stereo not shown), for which the LD50 in data set [1] (mice, single oral gavage, Bliss method, read-out: LD50) was determined as 870 mg/kg. In addition, the inhibition at 10 µM at NA Transporter (hNAT) worked out at 92.1%. For the same compound, in data set [2], the bacteriostatic action result was “bacteriostatic action is showed” and the Ames test result is on record as “negative”. Further, on DA Transporter (hDAT), the inhibition at 10 µM was 80.2%. For the same compound, in the data set on male ICR mice, the “IT (sec), immobility time” value came to 45.21 ± 28.19 s and the “Improvement (%)” value turned out to be 54.42%. Further, in the data set with male ICR mice (20 mg/kg), the “effect on immobility time in the tail suspension test (in words)” value (“effect on immobility time” for short) was “significant reduction in the immobility time”. Also, at 5-HT Transporter (hSERT), the “inhibition effect towards the reuptake of 5-HT (in words)” value (“inhibition effect towards the reuptake” below) is “relatively strong inhibition effect” and the inhibition at 10 µM was 90.5%. Also, in the data set with male Kunming mice, the “effect in the forced swimming test (in words)” value is “significant reduction in the immobility time” and the “IT (sec), immobility time” value amounted to 62.1 ± 42.9 s.
For `COc1ccc(C(CN(C)C)C2(O)CCCCC2)cc1` (stereo not shown) [Venlafaxine, reference compound], the inhibition at 10 µM on NA Transporter (hNAT) is 96.4%. Moreover, the inhibition at 10 µM on DA Transporter (hDAT) was determined as 52.4%. Also, the “immobility time” value in the data set on male ICR mice (20 mg/kg) is 36.97 ± 21.10 s. In the data set with male ICR mice, the “IT (sec), immobility time” value worked out at 36.97 ± 21.10 s and the “Improvement (%)” value stood at 62.73%. Besides, in the data set on rats (setting [3]), the “Incubation period of escape” value is 72.8 ± 77.26 s and the “Number of times of successful avoidance” value was 19.4 ± 6.88. Further, in the data set on rats (setting [4]), the “incubation period of escape (in words)” value was “significantly shortened incubation period of escape” and the “times of successful avoidance (in words)” value is “relatively more times of successful avoidance”. Moreover, the “IT (sec), immobility time” value in the data set on male Kunming mice came out at 77.4 ± 47.2 s.
With `CCN(CC)CCC(c1ccc(Cl)c(Cl)c1)N1CCCC1` (stereo not shown) [VI-1, N,N-diethyl-3-(3,4-dichlorophenyl)-3-(pyrrolidin-1-yl)-propylamine], the LD50 in data set [1] (po) was 1050 mg/kg. For the same compound, the inhibition at 10 µM on NA Transporter (hNAT) came out at 101%. In data set [2], the bacteriostatic action entry is “bacteriostatic action is showed” and the Ames test result was “negative”. The inhibition at 10 µM at DA Transporter (hDAT) came out at 101%. In the data set on male ICR mice, the “IT (sec), immobility time” value came to 48.17 ± 38.29 s and the “Improvement (%)” value was determined as 51.44%. Further, the “effect on immobility time” value in the data set on male ICR mice (20 mg/kg) was “significant reduction in the immobility time”. On 5-HT Transporter (hSERT), the “inhibition effect towards the reuptake” value is reported as “relatively strong inhibition effect” and the inhibition at 10 µM worked out at 98.2%. Also, in the data set with male Kunming mice, the “effect in the forced swimming test (in words)” value was “significant reduction in the immobility time” and the “IT (sec), immobility time” value is 57.1 ± 37.8 s.
Take `CN(C)CCC(c1ccc(Cl)c(Cl)c1)N1CCOCC1` (stereo not shown) [VI-4, N,N-dimethyl-3-(3,4-dichlorophenyl)-3-morpholinyl-propylamine]: on NA Transporter (hNAT) (10 μmol/L final concentration (b487 prints 0.1 mmol/L), HEK 293 hNAT cells, [3H]-NA), the “NA Reuptake Inhibition” value is given as 93.6%. Also, the “DA Reuptake Inhibition” value on DA Transporter (hDAT) (10 μmol/L final concentration (b487 prints 0.1 mmol/L), HEK 293 hDAT cells, [3H]-DA) came out at 89.9%. Also, in the data set with male ICR mice, the “IT (sec), immobility time” value amounted to 38.65 ± 16.32 s and the “Improvement (%)” value is listed as 61.04%. Also, the “effect on immobility time” value with male ICR mice (20 mg/kg) was “significant reduction in the immobility time”. The “inhibition effect towards the reuptake” value at 5-HT Transporter (hSERT) is “relatively strong inhibition effect”. Also, at 5-HT Transporter (hSERT) (10 μmol/L final concentration (b487 prints 0.1 mmol/L), HEK 293 hSERT cells, [3H]-5-HT), the “5-HT Reuptake Inhibition” value stood at 101.9%. For the same compound, in the data set on male Kunming mice, the “effect in the forced swimming test (in words)” value is reported as “significant reduction in the immobility time” and the “IT (sec), immobility time” value was determined as 52.8 ± 32.0 s.

As usually defined, the LD50 is the dose at which mortality reaches 50%. What is called inhibition is the drop in the measured response relative to a control, in per cent.

The record behind these values is patent US8962621B2 (Shanghai Institute of Pharmaceutical Industry, priority 2010, dated 2015).
